Reference: ChEMBL document CHEMBL4000176, “Synthesis and SAR study of novel sarsasapogenin derivatives as potent neuroprotective agents and NO production inhibitors” (2017)
The source made the active and inactive calls. The rule behind the calls is not given here.

What was measured:
Mus musculus [1] = assay: Cognition enhancing effect in scopolamine-induced cognitive impairment mouse model assessed as increase in time spent in target quadrant at 3 mg/kg, ig administered once in a day for 14 consecutive days followed by scopolamine challenge 1 hr post last dose by Morris water maze test; assay type: functional, organism-based
PC-12 [2] = assay: Neuroprotective activity against H2O2-induced cytotoxicity in rat PC12 cells assessed as cell viability at 10 umol/L preincubated for 2 hrs followed by H2O2 addition and measured after 24 hrs by MTT assay (reference value: 18.9 +/- 2.2%); assay type: functional; conditions: for viability at 10 µM: read-out: Activity
RAW264.7 = assay: Inhibition of LPS-induced NO production in mouse RAW264.7 cells at 10 umol/L after 24 hrs preincubated for 30 mins followed by LPS addition measured after 24 hrs by Griess assay relative to control; assay type: functional
PC-12 [3] = assay: Neuroprotective activity against H2O2-induced cytotoxicity in rat PC12 cells assessed as cell viability at 1 mM preincubated for 2 hrs followed by H2O2 addition and measured after 24 hrs by MTT assay (reference value: 18.9 +/- 2.2%); assay type: functional; conditions: read-out: Activity
Mus musculus [4] = assay: Cognition enhancing effect in scopolamine-induced cognitive impairment mouse model assessed as increase in time spent in target quadrant at 6 mg/kg, ig administered once in a day for 14 consecutive days followed by scopolamine challenge 1 hr post last dose by Morris water maze test; assay type: functional, organism-based

COc1cc2c(cc1OC)C(=O)C(CC1CCN(Cc3ccccc3)CC1)C2 (centres undefined)
Activity (Mus musculus [1]): Active

C[C@H]1CC[C@@]2(OC1)O[C@H]1C[C@H]3[C@@H]4CC[C@@H]5C[C@@H](OC(=O)NCc6ccc(Cl)cc6)CC[C@]5(C)[C@H]4CC[C@]3(C)[C@H]1[C@@H]2C
viability at 10 µM (PC-12 [2]): 49.8% | inhibition at 10 µM (RAW264.7): 21.4%

C[C@H]1CC[C@@]2(OC1)O[C@H]1C[C@H]3[C@@H]4CC[C@@H]5C[C@@H](OC(=O)N6CCNCC6)CC[C@]5(C)[C@H]4CC[C@]3(C)[C@H]1[C@@H]2C
viability at 10 µM (PC-12 [2]): 3.4%

C[C@H]1CC[C@@]2(OC1)O[C@H]1C[C@H]3[C@@H]4CC[C@@H]5C[C@@H](OC(=O)NCc6ccc(O)cc6)CC[C@]5(C)[C@H]4CC[C@]3(C)[C@H]1[C@@H]2C
viability at 10 µM (PC-12 [2]): 18.9%

CC(=O)N[C@@H](CS)C(=O)O [ACETYLCYSTEINE]
viability at 1000 µM (PC-12 [3]): 35.3%

C[C@H]1CC[C@@]2(OC1)O[C@H]1C[C@H]3[C@@H]4CC[C@@H]5C[C@@H](OC(=O)N6CCCCC6)CC[C@]5(C)[C@H]4CC[C@]3(C)[C@H]1[C@@H]2C
viability at 10 µM (PC-12 [2]): 20.1% | inhibition at 10 µM (RAW264.7): 28.7%

C[C@H]1CC[C@@]2(OC1)O[C@H]1C[C@H]3[C@@H]4CC[C@@H]5C[C@@H](OC(=O)NCc6ccccc6)CC[C@]5(C)[C@H]4CC[C@]3(C)[C@H]1[C@@H]2C
viability at 10 µM (PC-12 [2]): 49.4% | inhibition at 10 µM (RAW264.7): 8.9%

C[C@H]1CC[C@@]2(OC1)O[C@H]1C[C@H]3[C@@H]4CC[C@@H]5C[C@@H](O)CC[C@]5(C)[C@H]4CC[C@]3(C)[C@H]1[C@@H]2C [SARSASAPOGENIN]
viability at 10 µM (PC-12 [2]): 3.3%

C[C@H]1CC[C@@]2(OC1)O[C@H]1C[C@H]3[C@@H]4CC[C@@H]5C[C@@H](OC(=O)NC6CCCCC6)CC[C@]5(C)[C@H]4CC[C@]3(C)[C@H]1[C@@H]2C
viability at 10 µM (PC-12 [2]): 52.2% | inhibition at 10 µM (RAW264.7): 4.6%

C[C@H]1CC[C@@]2(OC1)O[C@H]1C[C@H]3[C@@H]4CC[C@@H]5C[C@@H](OC(=O)NN)CC[C@]5(C)[C@H]4CC[C@]3(C)[C@H]1[C@@H]2C
viability at 10 µM (PC-12 [2]): 11.2%

CC(C)CNC(=O)O[C@H]1CC[C@@]2(C)[C@H](CC[C@@H]3[C@@H]2CC[C@]2(C)[C@@H]4[C@H](C[C@@H]32)O[C@]2(CC[C@H](C)CO2)[C@H]4C)C1
viability at 10 µM (PC-12 [2]): 48.2% | inhibition at 10 µM (RAW264.7): 20.5% | Activity (Mus musculus [4]): Active

C[C@H]1CC[C@@]2(OC1)O[C@H]1C[C@H]3[C@@H]4CC[C@@H]5C[C@@H](OC(=O)N6CCCC6)CC[C@]5(C)[C@H]4CC[C@]3(C)[C@H]1[C@@H]2C
viability at 10 µM (PC-12 [2]): 16.1%

COc1ccc(CNC(=O)O[C@H]2CC[C@@]3(C)[C@H](CC[C@@H]4[C@@H]3CC[C@]3(C)[C@@H]5[C@H](C[C@@H]43)O[C@]3(CC[C@H](C)CO3)[C@H]5C)C2)cc1
viability at 10 µM (PC-12 [2]): 21.5%

Cc1ccc(CNC(=O)O[C@H]2CC[C@@]3(C)[C@H](CC[C@@H]4[C@@H]3CC[C@]3(C)[C@@H]5[C@H](C[C@@H]43)O[C@]3(CC[C@H](C)CO3)[C@H]5C)C2)cc1
viability at 10 µM (PC-12 [2]): 39.3%

C[C@H]1CC[C@@]2(OC1)O[C@H]1C[C@H]3[C@@H]4CC[C@@H]5C[C@@H](OC(=O)NCc6cccc(Cl)c6)CC[C@]5(C)[C@H]4CC[C@]3(C)[C@H]1[C@@H]2C
viability at 10 µM (PC-12 [2]): 40.3% | inhibition at 10 µM (RAW264.7): 19.3%

C[C@H]1CC[C@@]2(OC1)O[C@H]1C[C@H]3[C@@H]4CC[C@@H]5C[C@@H](OC(=O)NCCN)CC[C@]5(C)[C@H]4CC[C@]3(C)[C@H]1[C@@H]2C
Activity (PC-12 [2]): inactive

C[C@H]1CC[C@@]2(OC1)O[C@H]1C[C@H]3[C@@H]4CC[C@@H]5C[C@@H](OC(=O)NC(=N)NC#N)CC[C@]5(C)[C@H]4CC[C@]3(C)[C@H]1[C@@H]2C
viability at 10 µM (PC-12 [2]): 23.5%
